# Assays:
# [1] = system: prostate adenocarcinoma with metastases; assay: Individual curative trial, SPECT-CT, Lutetium-177 labeled compound (Case 1); format: in vivo, human; conditions: patient, radiolabeled with Lutetium-177
# Method: The compound PSMA-ALB-06, radiolabeled with therapeutic radionuclide Lutetium-177 was used in the scope of an individual curative trial in a patient with mildly differentiated prostate adenocarcinoma with extensive bilobar liver metastases, as well as disseminated osteoblastic metastases (in the pelvic region), and polytopic voluminous lymph node metastases. The evaluation of the biodistribution and in vivo behavior of the radiolabeled compound PSMA-ALB-06 was performed by means of SPECT-CT measurements.
# The SPECT-CT visualization was performed at different time points up to 46 hours post injection (p.i.). […] The blood clearance is completed within first hours, whereas the unspecific uptake in healthy organs (especially liver, salivary and kidney) remains moderate over the time.
# [2] = system: metastatic castration-resistant prostate cancer; assay: Individual curative trial, PET-CT, Gallium-68 labeled compound (Case 2); format: in vivo, human; conditions: patient; radiolabeled with Gallium-68
# Description: The compound PSMA-ALB-06, radiolabeled with a positron emitting radionuclide Gallium-68 was used in an individual curative trial in a patient with metastatic castration-resistant prostate cancer as a diagnostic agents for PET-CT. […] The high contrast of the images increases over the time after injection confirming the prolonged blood clearance and high specific uptake in the tumors.
compound,measurement,setting,value
Cc1ccc(CCCC(=O)NCCCCC(NC(=O)CN2CCN(CC(=O)O)CCN(CC(=O)O)CCN(CC(=O)O)CC2)C(=O)NCC2CCC(C(=O)NC(Cc3ccc4ccccc4c3)C(=O)NCCCCC(NC(=O)NC(CCC(=O)O)C(=O)O)C(=O)O)CC2)cc1 (stereo not drawn) [PSMA-ALB-06],uptake in malignant tissues (SPECT-CT),[1],substantial specific uptake of the radiolabeled compound in malignant tissues
same,blood circulation and bioavailability,[1]; up to 46 hours p.i.,prolonged blood circulation and improved bioavailability
same,visualization of malignant tissues (PET),[2],Malignant tissues could be visualized by means of PET with high specificity
